Results from patent publication US12570603B2, “FABP4/5 inhibitors, methods of use and methods of making” (Novius Therapeutics, LLC, priority 2021, dated 2026).

Experiments:
[1] = test system: LX-2 cells; assay: Hepatic stellate cells activation assay (αSMA after TGF-β); assay type: cell-based, human; details: B4 0.1 to 5 μM versus untreated cells
Protocol: LX-2 cells were treated with compound for 6 h. then stimulated with TGF-β ([…]) for additional 24 h. Cells were fixed with 4% paraformaldehyde and immununostained with the fibrosis marker αSMA. Nuclei were stained with Dapi. Images and quantification of positive cells was done using Cytation5 (Agilent).

[2] = test system: MB-231 tumors; assay: TNBC xenograft experiment; assay type: in vivo; details: NSG mice, B4 20 or 40 mg/kg IP 5 times a week, after 14 days
Protocol: Eight-week-old NSG […] females were injected subcutaneously into the right flank with 5×10^6 MB-231 cells 1:1 with matrigel. Treatments started the day after cells injections 5 days a week. Mice were treated with either vehicle (5% DMSO, 15%-HPCBD (PH 9.0) in water), 20 mg/kg, or 40 mg/kg B4 dissolved in vehicle. Tumor size was assessed twice per week using a digital caliper. Tumor volumes were determined by measuring the length (l) and the width (w) of the tumor and calculating the volume (V=lw^2/2). Mice were scarified 14 days after injection. Statistical significance between the control and treated mice in both experiments was evaluated using a Student's t test. Mouse experiments were conducted after approval by the institutional animal care and use committee at Case Western Reserve University.
TNBC xenograft model was used to test the efficacy of B4 in suppressing growth on tumors in vivo. 5×10^6 MB-231 cells were subcutaneously injected into the right flank of NSG mice. B4 (20, or 40 mg/kg) or a vehicle were IP injected 5 times a week and tumor growth was monitored.

[3] = test system: BT-549 cells; assay: Proliferation assay, combination with chemotherapy; assay type: cell-based, human; details: B4 1 μM with doxorubicin 0 to 100 nM
Protocol: 2000 cells were plated in each well of 96-well plate. The next day cells were treated with compounds and incubated in Incucyte for 4 days. Images taken every 4 hours for the duration of the time were analyzed to calculate percentage of confluency in response to the treatments. Growth inhibition was calculated as 1−(percentage of viable cells out of untreated cells).

[4] = test system: PPARδ targets PDPK1 and CD47 in TNBC cells MB-157; assay: Real-time PCR of PPARδ targets; assay type: cell-based, human; details: MB-157, 1 μM, 6 hours
Protocol: Cells were treated with a compound for 6 h. then lysed and RNA was extracted using Trizol, according to the manufacturer's instructions. cDNA was generated using GeneAmp RNA PCR (Applied Biosystems). qPCR was carried out using TaqMan chemistry and Assays-on-Demand probes (Applied Biosystems). 18s (4352930) rRNA was used for normalization. Relative expression was calculated as 2^−ΔΔCT.

[5] = test system: PPARγ; assay: Transactivation assay, PPRE luciferase reporter in COS-7 cells; assay type: cell-based; details: tested against rosiglitazone, FIG. 4
Protocol: (§1) COS-7 were cultured in 6-well plates and co-transfected with either a luciferase reporter driven by 3 copies of a PPRE and expression vector for either PPARδ, PPARα or PPARγ together with a vector harboring cDNA for β-galactosidase, serving as a transfection control. To test whether FABP4 or FABP5 mediate activation of their cognate receptors PPARγ and PPARδ, respectively, cells were also co-transfected with a plasmid harboring sequence of either FABP4 or FABP5. 18 h post-transfection, cells were placed in a serum-free medium and treated with agonist/compound. 18 h. later, cells were lysed, luciferase activity was assayed (Promega, WI, USA) and corrected for transfection efficiency by the activity of β-galactosidase.
(§2) COS-7 were cultured in 6-well plates and co-transfected with either a luciferase reporter driven by 3 copies of a PPRE and expression vector for either PPARδ, PPARα or PPARγ together with a vector harboring cDNA for β-galactosidase, serving as a transfection control. 18 h. post-transfection, cells were placed in a serum-free medium and treated with agonist/compound. 18 h. later, cells were lysed, luciferase activity was assayed (Promega, WI, USA) and corrected for transfection efficiency by the activity of β-galactosidase.

[6] = test system: PPARδ; assay: as above; assay type: cell-based; details: compared to GW0742, FIG. 5
Protocol: as §1, §2

[7] = test system: FABP4 together with PPARγ; assay: Transcriptional activation assay in cells overexpressing FABP4, with PPARγ activator rosiglitazone; assay type: cell-based; details: FIG. 7
Protocol: as §1

[8] = test system: 3T3-L1 adipocytes; assay: Lipid uptake during adipocyte maturation, Nile Red; assay type: cell-based, mouse; details: B4 from day 6, stained day 12
Protocol: (§3) 3) 3T3-L1: Mouse 3T3-L1 cells were differentiated in culture according to ATCC protocol to become mature adipocytes. At day 6 of the differentiation, compound treatment started. Cells were stained by Nile Red on day and color intensity in each cell was measured relative to Dapi staining. Lipolysis was measured by measuring glycerol levels using lipolysis kit (Cayman, USA) according to the manufacturer manual.
as §3, with “1)” for “3)”

[9] = Level of B4 in serum and tissues after IP injection or oral gavage; assay type: in vivo, mice
Protocol: Male CD-1 mice (n=3) were treated with B4 either by IP injections (5 mg/kg) or by oral gavage (10 mg/kg). At times, 3, 6, and 24 hours after treatment, mice were euthanized and serum, liver, adipose, muscle and brain tissues were collected and analyzed to determine level of B4. Untreated mice were used as controls.

[10] = IP Injection (0.35 μmole/mouse), 3 hr
[11] = IP Injection (0.35 μmole/mouse), 6 hr
[12] = IP Injection (0.35 μmole/mouse), 24 hr
[13] = Oral Gavage (0.71 μmole/mouse), 3 hr
[14] = Oral Gavage (0.71 μmole/mouse), 6 hr
[15] = Oral Gavage (0.71 μmole/mouse), 24 hr

Drug Concentration, Adipose [9, 10]: 7.98 ± 3.82 µmol/kg
Drug Concentration, Blood [9, 10]: 1.91 ± 0.14 µM
Drug Concentration, Brain [9, 10]: 0.15 ± 0.04 µmol/kg
Drug Concentration, Liver [9, 10]: 7.05 ± 2.0 µmol/kg
Drug Concentration, Muscle [9, 10]: 1.7 ± 0.8 µmol/kg
Drug Concentration, Adipose [9, 11]: 2.45 ± 1.12 µmol/kg
Drug Concentration, Blood [9, 11]: 1.37 ± 0.12 µM
Drug Concentration, Brain [9, 11]: 0.09 ± 0.01 µmol/kg
Drug Concentration, Liver [9, 11]: 3.45 ± 1.49 µmol/kg
Drug Concentration, Muscle [9, 11]: 1.07 ± 0.8 µmol/kg
Drug Concentration, Adipose [9, 12]: 0.013 ± 0.006 µmol/kg
Drug Concentration, Blood [9, 12]: 0.0054 ± 0.002 µM
Drug Concentration, Brain [9, 12]: 0.0003 ± 0.0002 µmol/kg
Drug Concentration, Liver [9, 12]: 0.035 ± 0.016 µmol/kg
Drug Concentration, Muscle [9, 12]: 0.008 ± 0.002 µmol/kg
Drug Concentration, Adipose [9, 13]: 1.41 ± 0.002 µmol/kg
Drug Concentration, Blood [9, 13]: 1.24 ± 0.25 µM
Drug Concentration, Brain [9, 13]: 0.1 ± 0.04 µmol/kg
Drug Concentration, Liver [9, 13]: 8.93 ± 2.2 µmol/kg
Drug Concentration, Muscle [9, 13]: 1.33 ± 0.74 µmol/kg
Drug Concentration, Adipose [9, 14]: 1.38 ± 0.05 µmol/kg
Drug Concentration, Blood [9, 14]: 0.98 ± 0.5 µM
Drug Concentration, Brain [9, 14]: 0.09 ± 0.04 µmol/kg
Drug Concentration, Liver [9, 14]: 6.47 ± 2.3 µmol/kg
Drug Concentration, Muscle [9, 14]: 0.95 ± 0.45 µmol/kg
Drug Concentration, Adipose [9, 15]: 0.11 ± 0.05 µmol/kg
Drug Concentration, Blood [9, 15]: 0.0072 ± 0.002 µM
Drug Concentration, Brain [9, 15]: 0.0009 ± 0.0007 µmol/kg
Drug Concentration, Liver [9, 15]: 0.035 ± 0.013 µmol/kg
Drug Concentration, Muscle [9, 15]: 0.014 ± 0.018 µmol/kg
clearance from serum and tissues ([9]; male CD-1 mice, IP 5 mg/kg or oral gavage 10 mg/kg, after 24 hours): cleared from the serum and tissues
SMILES: CC(C)Oc1cc(NC(=O)CSCC(=O)O)c(Cl)cc1Cl [Compound B4, 2-((2-((2,4-dichloro-5-isopropoxyphenyl)amino)-2-oxoethyl)thio)acetic acid]
levels of α-SMA following activation by TGF-β [1]: significantly lower than in untreated cells
growth of 231 tumors [2]: almost completely abolished growth
sensitization to chemotherapy [3]: sensitized to chemotherapy
levels of endogenous PPARδ targets PDPK1 and CD47 [4]: significantly lower
activation of transcription by PPARγ [5]: did not activate transcription
activation of transcription by PPARδ [6]: did not active transcription
inhibition of PPARγ activity in cells overexpressing FABP4 [7]: inhibit activity of the nuclear receptors only in cells that express the binding proteins
lipid droplets in adipocytes (Nile Red) [8]: fewer LD within the cells
